Measurements published in patent US11154060B2, “Microbiocidal oxadiazole derivatives” (SYNGENTA PARTICIPATIONS AG, priority 2016, dated 2021).

Tests used:
[1] = tested on: Puccinia recondita f. sp. tritici; test: Puccinia recondita f. sp. tritici / wheat / leaf disc preventative (brown rust); type: in vivo; details: foliar, wheat leaf segments cv. Kanzler, inoculated 1 day after application, assessed 7-9 days after application, read-out: control of Puccinia recondita f. sp. tritici compared to untreated control
In short: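 Wheat leaf segments (cv. Kanzler) on water agar sprayed with compound diluted from DMSO stock in water/0.025% Tween20, then inoculated with P. recondita spores 1 day later. Incubated at 19 °C, 75% rh, 12 h light/dark. Percent disease control versus untreated assessed 7-9 days after application.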

[2] = tested on: Puccinia recondita f. sp. tritici; test: Puccinia recondita f. sp. tritici / wheat / leaf disc curative (brown rust); type: in vivo; details: foliar, wheat leaf segments cv. Kanzler, applied 1 day after inoculation, assessed 6-8 days after application, read-out: control of Puccinia recondita f. sp. tritici compared to untreated control
In short: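 Wheat cv. Kanzler leaf segments on agar, inoculated with brown rust spores and kept dark at 19 °C, 75% rh; formulated compound sprayed 1 day after inoculation (curative). Incubated 19 °C, 75% rh, 12 h light/dark; percent disease control vs untreated scored 6–8 days after application.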

[3] = tested on: Phakopsora pachyrhizi; test: Phakopsora pachyrhizi / soybean / leaf disc preventative (Asian soybean rust); type: in vivo; details: foliar, soybean leaf disks, inoculated one day after application, assessed 12-14 days after application, read-out: control of Phakopsora pachyrhizi compared to untreated control
In short: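 Soybean leaf discs on water agar sprayed with formulated compound diluted in water; spore suspension sprayed on lower surface 1 day later. Kept 24-36 h dark at 20° C, 75% rh, then 12 h light/12 h dark. Percent disease control versus untreated scored 12-14 days after application.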

[4] = tested on: Glomerella lagenarium (Colletotrichum lagenarium); test: Glomerella lagenarium (Colletotrichum lagenarium) liquid culture / cucumber / preventative (anthracnose); type: cell-based; details: Colletotrichum orbiculare, liquid culture in PDB, 24° C., 3-4 days after application, read-out: control of Glomerella lagenarium compared to untreated control (inhibition of growth, photometric)
In short: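 Conidia from cryogenic storage mixed into potato dextrose broth and added to compound diluted from DMSO stock with 0.025% Tween20. Incubated at 24 °C; growth inhibition read photometrically 3–4 days after application, as percent antifungal activity versus untreated check.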

[5] = tested on: Uromyces viciae-fabae; test: Uromyces viciae-fabae / field bean / leaf disc preventative (faba-bean rust); type: in vivo; details: foliar, 288 h, 100 ppm in the applied formulation, field bean leaf discs, inoculated two hours after application, 12 days after application, read-out: disease control compared to untreated control leaf discs
Method: Leaf disks or leaf segments of various plant species are cut from plants grown in a greenhouse. The cut leaf disks or segments are placed in multiwell plates (24-well format) onto water agar. The leaf disks are sprayed with a test solution before (preventative) or after (curative) inoculation. Compounds to be tested are prepared as DMSO solutions (max. 10 mg/ml) which are diluted to the appropriate concentration with 0.025% Tween20 just before spraying. The inoculated leaf disks or segments are incubated under defined conditions (temperature, relative humidity, light, etc.) according to the respective test system. A single evaluation of disease level is carried out 3 to 14 days after inoculation, depending on the pathosystem. Percent disease control relative to the untreated check leaf disks or segments is then calculated. Field bean leaf discs are placed on water agar in multiwell plates (96-well format) and 10 μl of the formulated test compound diluted in acetone and a spreader pipetted onto the leaf disc. Two hours after application leaf discs are inoculated by spraying a spore suspension on the lower leaf surface. The leaf discs are incubated in a climate cabinet at 22° C. with 18 hour day and 70% relative humidity. The activity of a compound is assessed as percent disease control compared to untreated when an appropriate level of disease damage appears in untreated check leaf disks (12 days after application).

CONC(=O)c1ccc(-c2noc(C(F)(F)F)n2)cc1F [Compound 1.1, 2-fluoro-N-methoxy-4-[5-(trifluoromethyl)-1,2,4-oxadiazol-3-yl]benzamide]
pest or weed control at 200 ppm [1]: ≥ 80%
pest or weed control at 200 ppm [2]: ≥ 80%
pest or weed control at 200 ppm [3]: ≥ 80%
inhibition at 20 ppm [4]: ≥ 80%
pest or weed control at 100 ppm [5]: ≥ 80%
melting point: 122 to 125 °C

CON(C(=O)c1ccc(-c2noc(C(F)(F)F)n2)cc1F)C(C)Cc1c(Cl)cc(Cl)cc1Cl (stereo not drawn) [Compound 1.4, 2-fluoro-N-methoxy-N-[1-methyl-2-(2,4,6-trichlorophenyl)ethyl]-4-[5-(trifluoromethyl)-1,2,4-oxadiazol-3-yl]benzamide]
pest or weed control at 100 ppm [5]: ≥ 80%
melting point: 83.5 to 86.2 °C

CC(CC#N)ONC(=O)c1ccc(-c2noc(C(F)(F)F)n2)cc1F (stereo not drawn) [Compound 1.11, N-(2-cyano-1-methyl-ethoxy)-2-fluoro-4-[5-(trifluoromethyl)-1,2,4-oxadiazol-3-yl]benzamide]
pest or weed control at 200 ppm [1]: ≥ 80%
pest or weed control at 200 ppm [2]: ≥ 80%
pest or weed control at 200 ppm [3]: ≥ 80%
inhibition at 20 ppm [4]: ≥ 80%
pest or weed control at 100 ppm [5]: ≥ 80%
melting point: 85.8 to 88 °C

CONC(=O)Cc1ccc(-c2noc(C(F)(F)F)n2)c(F)c1 [Compound 1.17, 2-[3-fluoro-4-[5-(trifluoromethyl)-1,2,4-oxadiazol-3-yl]phenyl]-N-methoxy-acetamide]
pest or weed control at 200 ppm [1]: ≥ 80%
pest or weed control at 200 ppm [2]: ≥ 80%
pest or weed control at 200 ppm [3]: ≥ 80%
inhibition at 20 ppm [4]: ≥ 80%
melting point: 131 to 133 °C

CON(C)C(=O)Cc1ccc(-c2noc(C(F)(F)F)n2)cc1F [Compound 1.19, 2-[2-fluoro-4-[5-(trifluoromethyl)-1,2,4-oxadiazol-3-yl]phenyl]-N-methoxy-N-methyl-acetamide]
pest or weed control at 200 ppm [1]: ≥ 80%
pest or weed control at 200 ppm [2]: ≥ 80%
pest or weed control at 200 ppm [3]: ≥ 80%
inhibition at 20 ppm [4]: ≥ 80%
melting point: 104 to 106 °C

CCONC(=O)Cc1ccc(-c2noc(C(F)(F)F)n2)c(F)c1 [Compound 1.22, N-ethoxy-2-[3-fluoro-4-[5-(trifluoromethyl)-1,2,4-oxadiazol-3-yl]phenyl]acetamide]
pest or weed control at 200 ppm [1]: ≥ 80%
pest or weed control at 200 ppm [2]: ≥ 80%
pest or weed control at 200 ppm [3]: ≥ 80%
inhibition at 20 ppm [4]: ≥ 80%
melting point: 150 to 152 °C

O=C(c1ccc(-c2noc(C(F)(F)F)n2)cc1F)N1CCCO1 [Compound 1.26, [2-fluoro-4-[5-(trifluoromethyl)-1,2,4-oxadiazol-3-yl]phenyl]-isoxazolidin-2-yl-methanone]
pest or weed control at 200 ppm [1]: ≥ 80%
pest or weed control at 200 ppm [2]: ≥ 80%
inhibition at 20 ppm [4]: ≥ 80%
pest or weed control at 100 ppm [5]: ≥ 80%
melting point: 60.3 to 62.4 °C

O=C(c1ccc(-c2noc(C(F)(F)F)n2)cc1F)N1CCCCO1 [Compound 1.27, [2-fluoro-4-[5-(trifluoromethyl)-1,2,4-oxadiazol-3-yl]phenyl]-(oxazinan-2-yl)methanone]
pest or weed control at 200 ppm [1]: ≥ 80%
pest or weed control at 200 ppm [2]: ≥ 80%
pest or weed control at 200 ppm [3]: ≥ 80%
inhibition at 20 ppm [4]: ≥ 80%
pest or weed control at 100 ppm [5]: ≥ 80%
melting point: 57.3 to 59.4 °C

C#CCONC(=O)c1ccc(-c2noc(C(F)(F)F)n2)cc1 [Compound 2.11, N-prop-2-ynoxy-4-[5-(trifluoromethyl)-1,2,4-oxadiazol-3-yl]benzamide]
pest or weed control at 200 ppm [1]: ≥ 80%
pest or weed control at 200 ppm [2]: ≥ 80%
pest or weed control at 200 ppm [3]: ≥ 80%
inhibition at 20 ppm [4]: ≥ 80%
pest or weed control at 100 ppm [5]: ≥ 80%
melting point: 167 to 169 °C

C=CCONC(=O)c1ccc(-c2noc(C(F)(F)F)n2)cc1 [Compound 2.12, N-allyloxy-4-[5-(trifluoromethyl)-1,2,4-oxadiazol-3-yl]benzamide]
pest or weed control at 200 ppm [1]: ≥ 80%
pest or weed control at 200 ppm [2]: ≥ 80%
pest or weed control at 200 ppm [3]: ≥ 80%
inhibition at 20 ppm [4]: ≥ 80%
pest or weed control at 100 ppm [5]: ≥ 80%
melting point: 134 to 135 °C

CONC(=O)Cc1ccc(-c2noc(C(F)(F)F)n2)cc1 [Compound 2.13, N-methoxy-2-[4-[5-(trifluoromethyl)-1,2,4-oxadiazol-3-yl]phenyl]acetamide]
pest or weed control at 200 ppm [1]: ≥ 80%
pest or weed control at 200 ppm [2]: ≥ 80%
pest or weed control at 200 ppm [3]: ≥ 80%
inhibition at 20 ppm [4]: ≥ 80%
melting point: 131 to 138 °C

CCONC(=O)Cc1ccc(-c2noc(C(F)(F)F)n2)cc1 [Compound 2.16, N-ethoxy-2-[4-[5-(trifluoromethyl)-1,2,4-oxadiazol-3-yl]phenyl]acetamide]
pest or weed control at 200 ppm [1]: ≥ 80%
pest or weed control at 200 ppm [2]: ≥ 80%
pest or weed control at 200 ppm [3]: ≥ 80%
inhibition at 20 ppm [4]: ≥ 80%
melting point: 171 to 183 °C

O=C(Cc1ccc(-c2noc(C(F)(F)F)n2)cc1)NOCC(F)F [Compound 2.17, N-(2,2-difluoroethoxy)-2-[4-[5-(trifluoromethyl)-1,2,4-oxadiazol-3-yl]phenyl]acetamide]
pest or weed control at 200 ppm [1]: ≥ 80%
pest or weed control at 200 ppm [2]: ≥ 80%
pest or weed control at 200 ppm [3]: ≥ 80%
inhibition at 20 ppm [4]: ≥ 80%
melting point: 140 to 146 °C

O=C(c1ccc(-c2noc(C(F)(F)F)n2)cc1)N1OC2C=CC1CC2 (stereo not drawn) [Compound 2.23, 2-oxa-3-azabicyclo[2.2.2]oct-5-en-3-yl-[4-[5-(trifluoromethyl)-1,2,4-oxadiazol-3-yl]phenyl]methanone]
pest or weed control at 200 ppm [1]: ≥ 80%
pest or weed control at 200 ppm [2]: ≥ 80%
pest or weed control at 200 ppm [3]: ≥ 80%
inhibition at 20 ppm [4]: ≥ 80%
pest or weed control at 100 ppm [5]: ≥ 80%
melting point: 89 °C

O=C(c1ccc(-c2noc(C(F)(F)F)n2)cc1)N1OC2CCC1CC2 [Compound 2.24, 2-oxa-3-azabicyclo[2.2.2]octan-3-yl-[4-[5-(trifluoromethyl)-1,2,4-oxadiazol-3-yl]phenyl]methanone]
pest or weed control at 200 ppm [2]: ≥ 80%
pest or weed control at 200 ppm [3]: ≥ 80%
inhibition at 20 ppm [4]: ≥ 80%
pest or weed control at 100 ppm [5]: ≥ 80%
melting point: 120 to 121 °C
